Measured values: ChEMBL document CHEMBL3885861, “Open TG-GATES”

Species: Rattus norvegicus
Assay: Open TG-GATES - Regimen: Single
Format: toxicity, organism-based, Sprague-Dawley
Set-up: regimen Single, gender Male, age 6 weeks
Details: in vivo, po, 500 mg/kg, route gavage, dose level High; for APTT / Bas / Eos / Fbg / Hb / Ht / Lym / MCH / MCHC / MCV / Mono / Neu / PT / Plat / RBC / Ret / WBC: tissue Blood; for KIDNEY_L / KIDNEY_R / KIDNEY_TOTAL: tissue Kidney; for LIVER: tissue Liver; for A/G / ALP / ALT / AST / BUN / CRE / Ca / Cl / DBIL / GLC / IP / K / LDH / Na / PL / RALB / TBIL / TC / TG / TP / gamma-GTP: tissue Plasma

`CN1C(=O)OC(C)(C)C1=O` [TRIMETHADIONE] gave a TERMINAL_BW (3 h) of 212 g, an APTT (3 h) of 16.8 s and a Bas (3 h) of 0%. The Eos (3 h) was 0.8%, the Fbg (3 h) was 267.8 mg/dL and the Hb (3 h) was 12.7 g/dL. The Ht (3 h) was 38.3%, the Lym (3 h) was 79.2% and the MCH (3 h) was 21.5 pg. It also gave an MCHC (3 h) of 33.2%, an MCV (3 h) of 64.8 fL and a Mono (3 h) of 2.4%. For the same compound, the Neu (3 h) was 17%, the PT (3 h) was 14 s and the Plat (3 h) was 113.4 x10_4/uL. For the same compound, the RBC (3 h) was 591.4 x10_4/ul, the Ret (3 h) was 8.8% and the WBC (3 h) was 80.3 x10_2/uL. The KIDNEY_L (3 h) was 1 g, the KIDNEY_R (3 h) was 0.9 g and the KIDNEY_TOTAL (3 h) was 1.9 g. The LIVER (3 h) was 9.1 g, the A/G (3 h) was 0.9 and the ALP (3 h) was 1375.2 IU/L. It also gave an ALT (3 h) of 39.6 IU/L, an AST (3 h) of 70.6 IU/L and a BUN (3 h) of 8.6 mg/dL. It also gave a CRE (3 h) of 0.2 mg/dL, a Ca (3 h) of 10.5 mg/dL and a Cl (3 h) of 107.2 meq/L. For the same compound, the DBIL (3 h) was 0.002 mg/dL, the GLC (3 h) was 174.2 mg/dL and the IP (3 h) was 8.8 mg/dL. It also gave a K (3 h) of 4.2 meq/L, an LDH (3 h) of 108 IU/L and a Na (3 h) of 139.4 meq/L. The PL (3 h) was 150.4 mg/dL, the RALB (3 h) was 2.4 g/dL and the TBIL (3 h) was 0.058 mg/dL. It also gave a TC (3 h) of 84.2 mg/dL, a TG (3 h) of 60.6 mg/dL and a TP (3 h) of 5.2 g/dL. The gamma-GTP (3 h) was 1 IU/L, the TERMINAL_BW (6 h) was 209.4 g and the APTT (6 h) was 16.1 s. For the same compound, the Bas (6 h) was 0.2%, the Eos (6 h) was 1.2% and the Fbg (6 h) was 280.2 mg/dL. The Hb (6 h) was 12.9 g/dL, the Ht (6 h) was 38.9% and the Lym (6 h) was 79.6%. The MCH (6 h) was 21.1 pg, the MCHC (6 h) was 33.1% and the MCV (6 h) was 63.7 fL. The Mono (6 h) was 1.6%, the Neu (6 h) was 17% and the PT (6 h) was 14.1 s. The Plat (6 h) was 121.7 x10_4/uL, the RBC (6 h) was 611.6 x10_4/ul and the Ret (6 h) was 8.2%. The WBC (6 h) was 94.3 x10_2/uL, the KIDNEY_L (6 h) was 1 g and the KIDNEY_R (6 h) was 0.9 g. It also gave a KIDNEY_TOTAL (6 h) of 1.9 g, an LIVER (6 h) of 8.5 g and an A/G (6 h) of 0.9. The ALP (6 h) was 1302 IU/L, the ALT (6 h) was 31 IU/L and the AST (6 h) was 66.8 IU/L. The BUN (6 h) was 8.2 mg/dL, the CRE (6 h) was 0.2 mg/dL and the Ca (6 h) was 10.6 mg/dL. It also gave a Cl (6 h) of 107.2 meq/L, a DBIL (6 h) of 0 mg/dL and a GLC (6 h) of 173.2 mg/dL. The IP (6 h) was 9.4 mg/dL, the K (6 h) was 4.1 meq/L and the LDH (6 h) was 72 IU/L. It also gave a Na (6 h) of 141 meq/L, a PL (6 h) of 139.2 mg/dL and an RALB (6 h) of 2.4 g/dL. It also gave a TBIL (6 h) of 0.058 mg/dL, a TC (6 h) of 80.2 mg/dL and a TG (6 h) of 35.8 mg/dL. The TP (6 h) was 5.2 g/dL, the gamma-GTP (6 h) was 1.4 IU/L and the TERMINAL_BW (9 h) was 209 g. For the same compound, the APTT (9 h) was 15.6 s, the Bas (9 h) was 0% and the Eos (9 h) was 0.8%. The Fbg (9 h) was 253.2 mg/dL, the Hb (9 h) was 12.6 g/dL and the Ht (9 h) was 37.9%. For the same compound, the Lym (9 h) was 75.2%, the MCH (9 h) was 21.4 pg and the MCHC (9 h) was 33.4%. The MCV (9 h) was 64.3 fL, the Mono (9 h) was 1.8% and the Neu (9 h) was 21.8%. The PT (9 h) was 14.5 s, the Plat (9 h) was 117.7 x10_4/uL and the RBC (9 h) was 589.4 x10_4/ul. The Ret (9 h) was 8%, the WBC (9 h) was 81.5 x10_2/uL and the KIDNEY_L (9 h) was 1 g. It also gave a KIDNEY_R (9 h) of 1 g, a KIDNEY_TOTAL (9 h) of 2 g and an LIVER (9 h) of 8.2 g. The A/G (9 h) was 0.9, the ALP (9 h) was 1539.2 IU/L and the ALT (9 h) was 29 IU/L. The AST (9 h) was 65.4 IU/L, the BUN (9 h) was 7.6 mg/dL and the CRE (9 h) was 0.2 mg/dL. The Ca (9 h) was 10.2 mg/dL, the Cl (9 h) was 105.8 meq/L and the DBIL (9 h) was 0 mg/dL. It also gave a GLC (9 h) of 158.4 mg/dL, an IP (9 h) of 10.3 mg/dL and a K (9 h) of 3.8 meq/L. It also gave an LDH (9 h) of 69.4 IU/L, a Na (9 h) of 140.6 meq/L and a PL (9 h) of 127.8 mg/dL. For the same compound, the RALB (9 h) was 2.4 g/dL, the TBIL (9 h) was 0.056 mg/dL and the TC (9 h) was 67.4 mg/dL. It also gave a TG (9 h) of 28.2 mg/dL, a TP (9 h) of 5.1 g/dL and a gamma-GTP (9 h) of 1.2 IU/L. For the same compound, the TERMINAL_BW (24 h) was 215.3 g, the APTT (24 h) was 17.7 s and the Bas (24 h) was 0%. For the same compound, the Eos (24 h) was 0.8%, the Fbg (24 h) was 286.8 mg/dL and the Hb (24 h) was 13.6 g/dL. For the same compound, the Ht (24 h) was 40.5%, the Lym (24 h) was 78% and the MCH (24 h) was 21.1 pg. For the same compound, the MCHC (24 h) was 33.6%, the MCV (24 h) was 62.7 fL and the Mono (24 h) was 2.6%. It also gave a Neu (24 h) of 18.4%, a PT (24 h) of 13.8 s and a Plat (24 h) of 129.1 x10_4/uL. It also gave an RBC (24 h) of 646.2 x10_4/ul, a Ret (24 h) of 6.9% and a WBC (24 h) of 101.5 x10_2/uL. The KIDNEY_L (24 h) was 0.9 g, the KIDNEY_R (24 h) was 1 g and the KIDNEY_TOTAL (24 h) was 1.9 g. The LIVER (24 h) was 9.7 g, the A/G (24 h) was 0.9 and the ALP (24 h) was 1799.8 IU/L. For the same compound, the ALT (24 h) was 49.4 IU/L, the AST (24 h) was 82.2 IU/L and the BUN (24 h) was 13 mg/dL. The CRE (24 h) was 0.2 mg/dL, the Ca (24 h) was 10.6 mg/dL and the Cl (24 h) was 101.6 meq/L. For the same compound, the DBIL (24 h) was 0.006 mg/dL, the GLC (24 h) was 165.2 mg/dL and the IP (24 h) was 7.4 mg/dL. It also gave a K (24 h) of 3.9 meq/L, an LDH (24 h) of 96.8 IU/L and a Na (24 h) of 144 meq/L. The PL (24 h) was 137.2 mg/dL, the RALB (24 h) was 2.6 g/dL and the TBIL (24 h) was 0.046 mg/dL. For the same compound, the TC (24 h) was 75.6 mg/dL, the TG (24 h) was 99.4 mg/dL and the TP (24 h) was 5.6 g/dL. For the same compound, the gamma-GTP (24 h) was 1 IU/L.
